Assay results taken from patent publication US20240417398A1, “TETRAHYDRONAPTHYRIDINE AND RELATED ANALOGS FOR INHIBITING YAP/TAZ-TEAD” (SpringWorks Therapeutics, Inc., priority 2023, published 2024).

What follows are molecules tested on YAP/TAZ-TEAD transcription (assay: Reporter gene assay for measuring the inhibition of YAP/TAZ-TEAD transcription (TEAD-responsive element luciferase reporter, Hek293T cells)). Conditions: Homo sapiens, HEK-293T, 24 h, Hek293T cells transfected with TEAD-responsive element luciferase reporter, 24 hours incubation.
Type: cell-based
Method: Hek293T cells were cultured in DMEM supplemented with 10% fetal bovine serum, Sodium pyruvate, Sodium bicarbonate, L-glutamine. The cells were harvested and transiently transfected with TEAD-responsive element luciferase reporter. Transfected cells were plated in 384-well plate containing pre-diluted compounds. After 24 hours incubation at 37° C./5% CO2, assay plates were cooled to room temperature and levelled to an equal volume per well, prior to the addition of 25 uL luciferase substrate SteadyLite (Perkin Elmer)/well. The plate was shaken for 10 min at 600 rpm, centrifuged for 1 min at 500 rpm and measured with an Envision reader (PerkinElmer). The amount of relative light units produced by the TEAD reporter was used to calculate the percentage of inhibition.
The percent of reporter inhibition was calculated in the presence of a positive control inhibitor (100% inhibition) versus a condition with the presence of the vehicle basal activity of the reporter (0% inhibition). The ability of a test compound to inhibit this activity was determined as: Percentage inhibition=[1-((RLU determined in the presence of vehicle−RLU determined for sample with test compound present) divided by (RLU determined in the presence of vehicle−RLU determined for sample with positive control inhibitor))]*100.
The activities of example compounds tested are depicted in Table 3. The activity ranges A, B and C refer to IC50 values in the reporter gene assay as follows: “A”: IC50<1 μM; “B”: 1 μM≤IC50 10 μM and “C”: IC50>10 μM; NT=not tested.
`Cn1cncc1C(=O)NCC1Cc2ncccc2N(c2ccc(C(F)(F)F)cc2)C1` (stereo not shown) [Cpd. No. 30, 1-methyl-N-((1-(4-(trifluoromethyl)phenyl)-1,2,3,4-tetrahydro-1,5-naphthyridin-3-yl)methyl)-1H-imidazole-5-carboxamide] was tested, and the IC50 was over 10000 nM. In the case of `O=C1CCCN1CC1Cc2ncccc2N(c2ccc(C(F)(F)F)cc2)C1` (stereo not shown) [Cpd. No. 31, 1-((1-(4-(trifluoromethyl)phenyl)-1,2,3,4-tetrahydro-1,5-naphthyridin-3-yl)methyl)pyrrolidin-2-one], the IC50 is reported as over 10000 nM. `CC(=O)NCc1cc2c(c(-c3ccc(C(F)(F)F)cc3)c1)CNCC2` [Cpd. No. 32, N-((8-(4-(trifluoromethyl)phenyl)-1,2,3,4-tetrahydroisoquinolin-6-yl)methyl)acetamide] gave an IC50 of over 10000 nM. With `C=CC(=O)NCc1cc2c(c(-c3ccc(C(F)(F)F)cc3)c1)CNCC2` [Cpd. No. 33, N-((8-(4-(trifluoromethyl)phenyl)-1,2,3,4-tetrahydroisoquinolin-6-yl)methyl)acrylamide] the IC50 was under 1000 nM. Work on `[2H]C([2H])([2H])C(=O)NCC1Cc2ncccc2N(c2ccc(C(F)(F)F)cc2)C1` (stereo not shown) [Cpd. No. 34, N-((1-(4-(trifluoromethyl)phenyl)-1,2,3,4-tetrahydro-1,5-naphthyridin-3-yl)methyl)acetamide-2,2,2-d3] yielded an IC50 of under 1000 nM. Work on `O=C(Cc1ccccc1)NCC1Cc2ncccc2N(c2ccc(C(F)(F)F)cc2)C1` (stereo not shown) [Cpd. No. 35, 2-phenyl-N-((1-(4-(trifluoromethyl)phenyl)-1,2,3,4-tetrahydro-1,5-naphthyridin-3-yl)methyl)acetamide] yielded an IC50 of 1000 to 10000 nM. With `C=CC(=O)N(CC(=O)O)Cc1cc2c(c(-c3ccc(C(F)(F)F)cc3)c1)CNCC2` [Cpd. No. 36, N-acryloyl-N-((8-(4-(trifluoromethyl)phenyl)-1,2,3,4-tetrahydroisoquinolin-6-yl)methyl)glycine] the IC50 was over 10000 nM. With `CC(=O)N(CC(=O)O)Cc1cc2c(c(-c3ccc(C(F)(F)F)cc3)c1)CNCC2` [Cpd. No. 37, N-acetyl-N-((8-(4-(trifluoromethyl)phenyl)-1,2,3,4-tetrahydroisoquinolin-6-yl)methyl)glycine] the IC50 was over 10000 nM. In the case of `O=C(CC(F)(F)F)NCC1Cc2ncccc2N(c2ccc(C(F)(F)F)cc2)C1` (stereo not shown) [Cpd. No. 38, 3,3,3-trifluoro-N-((1-(4-(trifluoromethyl)phenyl)-1,2,3,4-tetrahydro-1,5-naphthyridin-3-yl)methyl)propanamide], the IC50 is reported as under 1000 nM. `CC(C)C(=O)NCC1Cc2ncccc2N(c2ccc(C(F)(F)F)cc2)C1` (stereo not shown) [Cpd. No. 39, N-((1-(4-(trifluoromethyl)phenyl)-1,2,3,4-tetrahydro-1,5-naphthyridin-3-yl)methyl)isobutyramide] showed an IC50 of under 1000 nM. Work on `O=C(NCC1Cc2ncccc2N(c2ccc(C(F)(F)F)cc2)C1)c1ccccc1` (stereo not shown) [Cpd. No. 40, N-((1-(4-(trifluoromethyl)phenyl)-1,2,3,4-tetrahydro-1,5-naphthyridin-3-yl)methyl)benzamide] yielded an IC50 of 1000 to 10000 nM. `C=CC(=O)N1CCN(C2Cc3ccccc3N(c3ccc(C(F)(F)F)cc3)C2)CC1` (stereo not shown) [Cpd. No. 41, 1-(4-(1-(4-(trifluoromethyl)phenyl)-1,2,3,4-tetrahydroquinolin-3-yl)piperazin-1-yl)prop-2-en-1-one] was tested, and the IC50 was under 1000 nM. Molecule `CC(=O)NCC1Cc2nc(C(F)(F)F)ccc2N(c2ccc(C(F)(F)F)cc2)C1` (stereo not shown) [Cpd. No. 42, N-((6-(trifluoromethyl)-1-(4-(trifluoromethyl)phenyl)-1,2,3,4-tetrahydro-1,5-naphthyridin-3-yl)methyl)acetamide] has an IC50 of under 1000 nM. `CNC(=O)NCC1Cc2ncccc2N(c2ccc(C(F)(F)F)cc2)C1` (stereo not shown) [Cpd. No. 43, 1-methyl-3-((1-(4-(trifluoromethyl)phenyl)-1,2,3,4-tetrahydro-1,5-naphthyridin-3-yl)methyl)urea] gave an IC50 of under 1000 nM. Molecule `CC(=O)NCC1Cc2ncc(Br)cc2N(c2ccc(C(F)(F)F)cc2)C1` (stereo not shown) [Cpd. No. 44, N-((7-bromo-1-(4-(trifluoromethyl)phenyl)-1,2,3,4-tetrahydro-1,5-naphthyridin-3-yl)methyl)acetamide] has an IC50 of under 1000 nM. For `CC(=O)NCC1Cc2nc(N)ccc2N(c2ccc(C(F)(F)F)cc2)C1` (stereo not shown) [Cpd. No. 45, N-((6-amino-1-(4-(trifluoromethyl)phenyl)-1,2,3,4-tetrahydro-1,5-naphthyridin-3-yl)methyl)acetamide], the IC50 was under 1000 nM. `CC(=O)NCc1cc2c(c(-c3ccc(C(F)(F)F)cc3)c1)CN(C)CC2` [Cpd. No. 46, N-((2-methyl-8-(4-(trifluoromethyl)phenyl)-1,2,3,4-tetrahydroisoquinolin-6-yl)methyl)acetamide] showed an IC50 of over 10000 nM. Work on `CC(=O)NCC1(C)Cc2ncccc2N(c2ccc(C(F)(F)F)cc2)C1` (stereo not shown) [Cpd. No. 47, N-((3-methyl-1-(4-(trifluoromethyl)phenyl)-1,2,3,4-tetrahydro-1,5-naphthyridin-3-yl)methyl)acetamide] yielded an IC50 of under 1000 nM. Work on `CC(=O)NCC1Cc2c(ccc(=O)n2C)N(c2ccc(C(F)(F)F)cc2)C1` (stereo not shown) [Cpd. No. 48, N-((5-methyl-6-oxo-1-(4-(trifluoromethyl)phenyl)-1,2,3,4,5,6-hexahydro-1,5-naphthyridin-3-yl)methyl)acetamide] yielded an IC50 of over 10000 nM. With `CC(=O)NCC1Cc2ncc(N)cc2N(c2ccc(C(F)(F)F)cc2)C1` (stereo not shown) [Cpd. No. 49, N-((7-amino-1-(4-(trifluoromethyl)phenyl)-1,2,3,4-tetrahydro-1,5-naphthyridin-3-yl)methyl)acetamide] the IC50 was 1000 to 10000 nM. For `CC(=O)NCC1Cc2ncc(F)cc2N(c2ccc(C(F)(F)F)cc2)C1` (stereo not shown) [Cpd. No. 50, N-((7-fluoro-1-(4-(trifluoromethyl)phenyl)-1,2,3,4-tetrahydro-1,5-naphthyridin-3-yl)methyl)acetamide], the IC50 was under 1000 nM. Molecule `CC(=O)NCC1Cc2ncc(Cl)cc2N(c2ccc(C(F)(F)F)cc2)C1` (stereo not shown) [Cpd. No. 51, N-((7-chloro-1-(4-(trifluoromethyl)phenyl)-1,2,3,4-tetrahydro-1,5-naphthyridin-3-yl)methyl)acetamide] has an IC50 of under 1000 nM. `CC(=O)NCC1Cc2nc(N(C)C)ccc2N(c2ccc(C(F)(F)F)cc2)C1` (stereo not shown) [Cpd. No. 52, N-((6-(dimethylamino)-1-(4-(trifluoromethyl)phenyl)-1,2,3,4-tetrahydro-1,5-naphthyridin-3-yl)methyl)acetamide] was tested, and the IC50 was under 1000 nM. In the case of `CC(=O)NCC1Cc2ncccc2N(c2ccc(C(F)(F)F)cn2)C1` (stereo not shown) [Cpd. No. 53, N-((1-(5-(trifluoromethyl)pyridin-2-yl)-1,2,3,4-tetrahydro-1,5-naphthyridin-3-yl)methyl)acetamide], the IC50 is reported as 1000 to 10000 nM. `CC(=O)NCC1Cc2c(ccn(C)c2=O)N(c2ccc(C(F)(F)F)cc2)C1` (stereo not shown) [Cpd. No. 54, N-((6-methyl-5-oxo-1-(4-(trifluoromethyl)phenyl)-1,2,3,4,5,6-hexahydro-1,6-naphthyridin-3-yl)methyl)acetamide] was tested, and the IC50 was under 1000 nM. `CCc1ccc2c(n1)CC(CNC(C)=O)CN2c1ccc(C(F)(F)F)cc1` (stereo not shown) [Cpd. No. 55, N-((6-ethyl-1-(4-(trifluoromethyl)phenyl)-1,2,3,4-tetrahydro-1,5-naphthyridin-3-yl)methyl)acetamide] was tested, and the IC50 was under 1000 nM. `CC(=O)NCC1Cc2nccnc2N(c2ccc(C(F)(F)F)cc2)C1` (stereo not shown) [Cpd. No. 56, N-((5-(4-(trifluoromethyl)phenyl)-5,6,7,8-tetrahydropyrido[2,3-b]pyrazin-7-yl)methyl)acetamide] was tested, and the IC50 was under 1000 nM. With `CC(=O)NCC1Cc2nc(C3CC3)ccc2N(c2ccc(C(F)(F)F)cc2)C1` (stereo not shown) [Cpd. No. 57, N-((6-cyclopropyl-1-(4-(trifluoromethyl)phenyl)-1,2,3,4-tetrahydro-1,5-naphthyridin-3-yl)methyl)acetamide] the IC50 was under 1000 nM. `CC(=O)NCC1Cc2nc(C#N)ccc2N(c2ccc(C(F)(F)F)cc2)C1` (stereo not shown) [Cpd. No. 58, N-((6-cyano-1-(4-(trifluoromethyl)phenyl)-1,2,3,4-tetrahydro-1,5-naphthyridin-3-yl)methyl)acetamide] was tested, and the IC50 was over 10000 nM. Molecule `CC(=O)NCC1Cc2nc(C(N)=O)ccc2N(c2ccc(C(F)(F)F)cc2)C1` (stereo not shown) [Cpd. No. 59, 7-(acetamidomethyl)-5-(4-(trifluoromethyl)phenyl)-5,6,7,8-tetrahydro-1,5-naphthyridine-2-carboxamide] has an IC50 of over 10000 nM. `CC(=O)NCC1Cc2nc(OC(F)F)ccc2N(c2ccc(C(F)(F)F)cc2)C1` (stereo not shown) [Cpd. No. 60, N-((6-(difluoromethoxy)-1-(4-(trifluoromethyl)phenyl)-1,2,3,4-tetrahydro-1,5-naphthyridin-3-yl)methyl)acetamide] was tested, and the IC50 was under 1000 nM. `CC(=O)NCC1Cc2nc(C(F)F)ccc2N(c2ccc(C(F)(F)F)cc2)C1` (stereo not shown) [Cpd. No. 61, N-((6-(difluoromethyl)-1-(4-(trifluoromethyl)phenyl)-1,2,3,4-tetrahydro-1,5-naphthyridin-3-yl)methyl)acetamide] gave an IC50 of 1000 to 10000 nM. `CC(=O)NCC1Cc2nc(Br)ccc2N(c2ccc(C(F)(F)F)cc2)C1` (stereo not shown) [Cpd. No. 62, N-((6-bromo-1-(4-(trifluoromethyl)phenyl)-1,2,3,4-tetrahydro-1,5-naphthyridin-3-yl)methyl)acetamide] was tested, and the IC50 was under 1000 nM. For `C#Cc1ccc2c(n1)CC(CNC(C)=O)CN2c1ccc(C(F)(F)F)cc1` (stereo not shown) [Cpd. No. 63, N-((6-ethynyl-1-(4-(trifluoromethyl)phenyl)-1,2,3,4-tetrahydro-1,5-naphthyridin-3-yl)methyl)acetamide], the IC50 was under 1000 nM.
